What was measured:
HepG2 = test: Cytotoxicity against human HepG2 cells assessed as cell viability at 20 uM measured after 48 hrs by MTT assay relative to control; type: functional; conditions: HepG2, 48 h, read-out: Activity
HeLa = test: Cytotoxicity against human HeLa cells assessed as cell viability at 20 uM measured after 48 hrs by MTT assay relative to control; type: functional; conditions: read-out: Activity
MCF7 = test: Cytotoxicity against human MCF7 cells assessed as cell viability at 20 uM measured after 48 hrs by MTT assay relative to control; type: functional; conditions: MCF7, 48 h, read-out: Activity
HL-60 [1] = test: Cytotoxicity against human HL60 cells assessed as cell viability at 20 uM measured after 48 hrs by MTT assay relative to control; type: functional; conditions: HL-60, 48 h, read-out: Activity
HL-60 [2] = test: Cytotoxicity against human HL60 cells assessed as reduction in cell viability measured after 48 hrs by MTT assay; type: functional, cell-based; conditions: HL-60, 48 h

Row | Structure (SMILES) | viability at 20 µM (HepG2) | viability at 20 µM (HeLa) | viability at 20 µM (MCF7) | viability at 20 µM (HL-60 [1]) | IC50 (HL-60 [2])
1 | CCN(CC)c1ccc2cc(C(=O)N3CCN(C(=O)/C=C/c4ccc(OC)cc4)CC3)c(=O)oc2c1 | 98.9% | 81.6% | 98.1% | 85.6% | 
2 | CCN(CC)c1ccc2cc(C(=O)N3CCN(C(=O)/C(=C/c4cc(OC)c(OC)c(OC)c4)c4ccc(OC)c(OC)c4)CC3)c(=O)oc2c1 | 82.1% | 97.8% | 100% | 80.3% | 
3 | CCN(CC)c1ccc2cc(C(=O)N3CCN(C(=O)/C=C/c4cc(OC)c(OC)cc4OC)CC3)c(=O)oc2c1 | 99.6% | 84.6% | 91.6% | 80.1% | 
4 | CCN(CC)c1ccc2cc(C(=O)NCCNC(=O)/C=C/c3cc(OC)c(OC)cc3OC)c(=O)oc2c1 | 100% | 72.6% | 76.4% | 48.2% | 22.9 µM
5 | CCN(CC)c1ccc2cc(C(=O)NCCNC(=O)/C=C/c3ccc(OC)cc3)c(=O)oc2c1 | 68.8% | 71.8% | 80.7% | 78.5% | > 25 µM
6 | CCN(CC)c1ccc2cc(C(=O)NCCNC(=O)/C(=C/c3cc(OC)c(OC)c(OC)c3)c3ccc(C(F)(F)F)cc3)c(=O)oc2c1 | 98.9% | 74% | 79.1% | 54.2% | > 25 µM
7 | CCN(CC)c1ccc2cc(C(=O)NCCNC(=O)/C=C/c3cc(OC)c(OC)c(OC)c3)c(=O)oc2c1 | 72.9% | 61.4% | 72.4% | 45.5% | 23.3 µM
8 | CCN(CC)c1ccc2cc(C(=O)N3CCN(C(=O)/C=C/c4cc(OC)c(OC)c(OC)c4)CC3)c(=O)oc2c1 | 97.2% | 82.6% | 100% | 74.5% | 
9 | CCN(CC)c1ccc2cc(C(=O)NCCCCNC(=O)/C=C/c3cc(OC)c(OC)c(OC)c3)c(=O)oc2c1 | 93.8% | 74.5% | 93.8% | 56.3% | 
10 | CCN(CC)c1ccc2cc(C(=O)NCCCCCCNC(=O)/C=C/c3cc(OC)c(OC)c(OC)c3)c(=O)oc2c1 | 100% | 72.2% | 91% | 43.5% | 
11 | CCN(CC)c1ccc2cc(C(=O)NCCCCCCNC(=O)/C=C/c3ccc(OC)cc3)c(=O)oc2c1 | 76.6% | 100% | 87.8% | 99.8% | 
12 | CCN(CC)c1ccc2cc(C(=O)NCCCCNC(=O)/C(=C/c3cc(OC)c(OC)c(OC)c3)c3ccc(OC)cc3)c(=O)oc2c1 | 100% | 75% | 84.9% | 51.3% | 
13 | CCN(CC)c1ccc2cc(C(=O)NCCNC(=O)/C(=C/c3cc(OC)c(OC)c(OC)c3)c3ccc(OC)c(F)c3)c(=O)oc2c1 | 100% | 99.7% | 100% | 67.7% | 15 µM
14 | CCN(CC)c1ccc2cc(C(=O)NCCCCCCNC(=O)/C(=C/c3cc(OC)c(OC)c(OC)c3)c3ccc(OC)cc3)c(=O)oc2c1 | 100% | 100% | 100% | 82.5% | 
15 | CCN(CC)c1ccc2cc(C(=O)NCCNC(=O)/C(=C/c3cc(OC)c(OC)c(OC)c3)c3ccc(OC)cc3)c(=O)oc2c1 | 100% | 75% | 75.8% | 29.4% | 13.8 µM
16 | CCN(CC)c1ccc2cc(C(=O)N3CCN(C(=O)/C(=C/c4cc(OC)c(OC)c(OC)c4)c4ccc(OC)cc4)CC3)c(=O)oc2c1 | 100% | 100% | 100% | 74.3% | 
17 | CCN(CC)c1ccc2cc(C(=O)NCCNC(=O)/C=C/c3c(OC)cc(OC)cc3OC)c(=O)oc2c1 | 75.4% | 63.9% | 72.1% | 68.9% | > 25 µM
18 | CCN(CC)c1ccc2cc(C(=O)NCCNC(=O)CCc3cc(OC)c(OC)c(OC)c3)c(=O)oc2c1 | 66.8% | 67.4% | 78.2% | 80.4% | > 25 µM
19 | CCN(CC)c1ccc2cc(C(=O)N3CCN(C(=O)/C=C/c4c(OC)cc(OC)cc4OC)CC3)c(=O)oc2c1 | 88.7% | 78.2% | 94% | 75.3% | 
20 | CCN(CC)c1ccc2cc(C(=O)NCCNC(=O)/C(=C/c3cc(OC)c(OC)c(OC)c3)c3ccc(F)cc3)c(=O)oc2c1 | 96% | 84.7% | 75.3% | 68.3% | 18.8 µM

Reference: ChEMBL document CHEMBL4346666, “Synthesis, mitochondrial localization of fluorescent derivatives of cinnamamide as anticancer agents” (Eur J Med Chem, 2019)
